Measurements taken from patent publication US20050148521A1, “Anti-cancer combination and use thereof” (Yissum Research Development Company of the Hebrew University, priority 2002, published 2005).
Entries after “also recorded” stand apart in the source; their conditions may differ.

Columns and labels:
[1] = system: EMT6/CTX mouse breast cancer cell line; assay: EMT6/CTX subcutaneous tumor growth in mice (tumor volume); type: in vivo
Source text: Breast cancer is a highly lethal disease. To test the efficacy of rofecoxib, benzyl benzoate, cyclophosphamide, and pamidronate alone and in combination, a mouse breast cancer cell line, EMT6, that was originally isolated from a spontaneous tumor in a BALB/c mouse was used (Twentyman P R and Watson J V, Br. J. Cancer 35: 120 (1977)). This line was further selected for a drug resistant variant, EMT6/CTX, that was used in this study (Teicher B A et al. Cancer Chemother. Pharmacol. 37: 601 (1996)). An EMT6/CTX cell suspension was freshly prepared in DMEM medium+10% FCS, following trypsinization of cell grown in tissue culture. Anesthesia is performed by injecting 0.08 ml per mouse of Ketamine 30 mg/ml+0.07% Chanazine in PBS.
Rofecoxib (Vioxx, a Merck & Co. Inc. product), as an oral suspension. Diclofenac, water-soluble Vitamin K3 (menadione sodium bisulfite) and Benzyl benzoate, purchased from Sigma-Aldrich (St. Louise, […].), were formulated into solution in double-distilled water plus 2% Tween 20 (J.T. Baker, NJ). Cyclophosphamide, purchased from Bristol-Meyers Squibb (Princeton, N.J.), was formulated into solution in double-distilled water plus 2% Tween 20. Pamidronate (Pamidronic acid) was dissolved in 2M HEPES. The following doses were used for treatment in all three experiments: Rofecoxib 10 mg/kg, pamidronate 10 mg/kg, Diclofenac 30 or 60 mg/kg, menadione sodium bisulfite 20 or 50 mg/kg, cyclophosphamide (CTX) 50, 60 or 100 mg/kg and benzyl benzoate 80 or 550 mg/kg. Vehicle: 2% Tween 20 in double distilled water. The preparations were made in a concentration that will require an i.p. injection of 0.1 ml per 20 gr body weight to achieve the above doses.
All treatments were started 5 days after cell inoculation. Treatment comprised an intraperitoneal injection of 0.1 ml per 20 gr body weight of the formulation. Mice were treated twice a week for a period of 3 weeks.
Tumor dimensions were measured twice a week. Tumor volume was calculated according to conventional methods (volume=a^2×b×0.52 where a represents the tumor width and b is its length) and the data are represented as changes in tumor volume with time. Toxicity was evaluated by qualitative observation of the general appearance and behavior of the mice, by measuring their body weight during various intervals during the course of the treatments and by obtaining mortality data.

[2] = system: tumor-bearing mice; assay: Own studies with tumor-bearing mice, agent given by itself; type: in vivo
[3] = system: cancer; conditions: Tetef M. et al. J. Cancer Res. Clin. Oncol. 121: 103-6 (1995); cited from earlier work

SMILES: O=C(OCc1ccccc1)c1ccccc1 [A, Benzyl benzoate]
- tumor volume, comparison of regimen ([1]; Experiment 4, FIG. 4, (CTX 50+BC)x2 per week+1/6A x6 per week vs CTX 50+ABC twice a week, 4 weeks): superiority of spreading the dose of A throughout the week

SMILES: O=P1(N(CCCl)CCCl)NCCCO1 (stereo not shown) [CTX 50, Cyclophosphamide]
- effect on tumor growth ([1]; Experiment 3, FIG. 3, i.p. twice a week for 4 weeks, start 3 days after inoculation): moderate effect on tumor growth
- tumor volume, comparison of regimen ([1]; Experiment 7, FIG. 7, CTX 100 Sun. or CTX20 all week, D50 1, 3 or 5 days apart, A all week, 4 weeks): preferred over equal small doses throughout the week

SMILES: O=C(O)Cc1ccccc1Nc1c(Cl)cccc1Cl [D, Diclofenac]
- tumor volume, comparison of NSAID ([1]; Experiment 6, FIG. 6, NSAID Wed. with or without B, CTX 100 Sun., A all week, 4 weeks): superiority of D (25 and 50 mg/kg) over C (5 and 10 mg/kg, respectively)

SMILES: CS(=O)(=O)c1ccc(C2=C(c3ccccc3)C(=O)OC2)cc1 [Rofecoxib]
- anti-cancer effect [2]: no significant anti-cancer effect

SMILES: CC1=CC(=O)c2ccccc2C1=O [VK, 2-methyl-1,4-naphthalenedione]
- tumor volume, effect of addition of Vitamin K3 ([1]; Experiment 8, FIG. 8, VK 20 mg/kg 6 times a week or 50 mg/kg twice a week added to CTX60+D30+A, 4 weeks): improve the efficacy of the treatment; also recorded: lower doses throughout the week (every day) is preferable
- activity as an anti-cancer agent [3]: failed to show any activity
